The record followed here is publication PMC10035370, “Targeting Tumor Angiogenesis with the Selective VEGFR-3 Inhibitor EVT801 in Combination with Cancer Immunotherapy” (Cancer Research Communications, 2022).

Series [1] is described as follows: Blood pressure in telemetered rat model of hypertension. The settings on record: dose as high as 500 mg/kg, single oral administration. The format is in vivo. On the procedure:
Supplementary Figure 8. EVT801 and sorafenib show opposing effects on blood pressure in rats. (A) Monitoring of the blood pressure over 24 h after single oral administration of 100 mg/kg EVT801 or 500 mg/kg of EVT801, compared to animals treated with vehicle. (B) Monitoring of the blood pressure over 24 h after single oral administration of 10 mg/kg sorafenib, 30 mg/kg sorafenib or 100 mg/kg of sorafenib, compared to animals treated with vehicle.

A further series has as its target T1, VEGFR-1 (Homo sapiens, UniProt P17948).
T1 construct: The VEGFR-1 tyrosine kinase domain was obtained from Upstake; purchased Upstake (so in the source)
T1 sequence (P17948 827-1158 limits assumed): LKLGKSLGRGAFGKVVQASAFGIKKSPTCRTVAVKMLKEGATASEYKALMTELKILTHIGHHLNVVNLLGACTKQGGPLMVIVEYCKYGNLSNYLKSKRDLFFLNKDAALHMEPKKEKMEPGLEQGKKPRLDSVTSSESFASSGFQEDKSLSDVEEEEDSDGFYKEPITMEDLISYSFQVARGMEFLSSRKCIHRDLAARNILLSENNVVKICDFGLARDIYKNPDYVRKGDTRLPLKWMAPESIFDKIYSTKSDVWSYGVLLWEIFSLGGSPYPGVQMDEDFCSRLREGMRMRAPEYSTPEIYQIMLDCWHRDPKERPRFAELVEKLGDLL
Briefly: Biochemical kinase assay (in vitro assay), VEGFR-1. The settings on record: read-out: IC50 in biochemical assays, VEGFR-1. The method, then:
Sigma protein kinase assay kits were used. 125 μL per well of Poly-Glu-Tyr (PGT) solution (250 μg/mL of PGT in PBS without Ca^2+, Mg^2+ and sodium bicarbonate) was added in a 96-well plate and overnight incubation was performed at 37 °C. The day after, coating solution was removed and wells were washed with 300 μL of PBS-Tween-20 0.05 %. The washing buffer was removed and wells were dried for 2 h at 37 °C. 90 μL of the kinase buffer was supplemented with ATP (30 μM for VEGFR-1 and VEGFR-3, and 15 μM for VEGFR-2), and the compound (EVT801 or SAR401849 at the indicated concentration or 1 % DMSO for the vehicle control). The phosphorylation reaction was initiated by the addition of 20 μL of kinase buffer without ATP supplemented with 100 ng of the tyrosine kinase (or without tyrosine kinase as control). Plates were incubated with gentle agitation at room temperature for 30 min. After 3 washes with 300 μL of washing buffer, 100 μL of phosphotyrosine specific monoclonal antibody conjugated to HRP (1:30,000) was added onto the phosphorylated PGT. Plates were incubated for 30 min at room temperature under gentle agitation. Then, 3 washes with 300 μL of washing buffer were performed. […] After 7 min at room temperature, the reaction was stopped by addition of 100 μL of […], and absorbance was determined with an Endvision spectrophotometer at 492 nm.

Another series in a line: Pharmacokinetics in mice. Type of series: in vivo. Conditions: mouse; for half-life / Cmax / AUC(0-t): plasma; for AUC(0-t): read-out: AUC(0–24). The method, then:
Plasma samples and tumor homogenates were mixed with the precipitant solution (acetonitrile containing internal standard). The supernatant (180 µL) was transferred in a 96-well plate and 5 µL were injected. EVT801 and its main metabolite were quantified by LC-MS/MS following standard conditions.
Quality control (QC) samples and calibration samples were prepared daily by spiking mouse plasma and tumor homogenates with working solutions prepared from independent weighing. The calibration curve was calculated from calibration levels at 1, 2.5, 5, 10, 25, 50, 100, 200, 500, 1000 and 2000 ng/mL. A variation of ± 20 % versus the nominal concentrations was used as criteria for qualification of samples; at least 75 % of all standards needed to be within this window, and at least 6 concentration values within tis window were used for quantification. The concentrations for QC samples were 5, 50, 150, 450 and 1500 ng/mL. At least 66 % of all QC samples, and at least 50 % of QC samples at a given concentration were within the ± 20 % window. Quadratic regressions were applied, not forced through the origin, and weighted by 1/x (with R^2 > 0.98). The lower limit of quantification for both compounds was set to 1 ng/mL for plasma and to 3 ng/g for tumor samples.

For another series, the system named is RT-HAM-001 tumors. As to the kind of experiment: RT-001-HAM subcutaneous patient-derived xenograft tumor mouse model. The settings on record: 30 mg/kg twice per day, 7-day treatment. The format is in vivo, mice. The method, then:
Patient-derived tumors of the same passage were transplanted subcutaneously outbred athymic (nu/nu) female HSD mice. When tumor volume reached 726 to 1,437 mm^3, 4 donor mice were sacrificed by cervical dislocation, and tumors were aseptically excised and dissected. After removing necrotic areas, tumor fragments of approximately 20 mm^3 were transferred to culture medium before grafting. A total of 108 mice were anesthetized with 100 mg/kg ketamine hydrochloride (Virbac) and 10 mg/kg xylazine (Bayer). Then, a tumor fragment was placed in the subcutaneous tissue of an incision at the level of the interscapular region as described previously ([30]). All mice from the same experiment were implanted on the same day. A total of 54 mice with RT-001-HAM established growing tumor (P6.0.0/0) between 62.5 and 196 mm^3 were allocated according to tumor volume, ensuring homogenous median and mean tumor volume in each treatment arm. Treatments with 5 mL/kg vehicle, 30 mg/kg EVT801, or 30 mg/kg pazopanib started 15 days after tumor implantation and continued twice per day until termination 7 days later. Tumor volumes were measured via a caliper three times a week during the treatment period. All animals were weighed at the same time as tumor size measurement. Plasma and fresh tumor samples were collected at different timepoints after final dose at day 7 from all mice.
(In general: In xenograft studies the graft and the host belong to different species.)

Like-named read-outs stand apart in the source and are kept apart here.

For `CCn1c(N)c(-c2ncc[nH]2)c(=O)c2ccc(C#C[C@@](C)(O)COC)nc21` [EVT801], the “effect on blood pressure” value in series [1] is reported as “did not increase blood pressure”. In addition, the IC50 (usually the concentration needed to halve the response being measured) at VEGFR-1 stood at 396 nM. Also, the half-life in “Pharmacokinetics in mice” (Balb/c, 30 mg/kg, Balb/c mice, 30 mg/kg, read-out: T1/2 in plasma (converted)) was 2.7 h; in “Pharmacokinetics in mice” (Balb/c, 100 mg/kg, Balb/c mice, 100 mg/kg, read-out: T1/2 in plasma (converted)), 1.1 h; in the series “Pharmacokinetics in mice” (Balb/c, 100 mg/kg, Balb/c with 4T1 tumor, 100 mg/kg for 2 weeks), 3.2 h; in “Pharmacokinetics in mice” (SCID, 10 mg/kg, SCID mice with tumor, 10 mg/kg for 2 weeks, read-out: T1/2 in plasma (converted)) it was 0.9 h; in “Pharmacokinetics in mice” (SCID, 30 mg/kg, SCID mice with tumor, 30 mg/kg for 2 weeks, read-out: T1/2 in plasma (converted)), 1.6 h. In addition, the Cmax (as a rule, the maximum level reached in the sampled fluid or tissue) is 8940 ng/mL in the series “Pharmacokinetics in mice” (oral, 100 mg/kg/day) and 8390 ng/mL in the series “Pharmacokinetics in mice” (po, 30 mg/kg twice per day). The AUC(0-t) worked out at 22000 ng·h/mL in the series “Pharmacokinetics in mice” (oral, 100 mg/kg/day) and 28000 ng·h/mL in the series “Pharmacokinetics in mice” (po, 30 mg/kg twice per day). In addition, in “Pharmacokinetics in mice” (Balb/c with 4T1 tumor, 100 mg/kg for 2 weeks, read-out: Tissue to plasma (AUC)), the Kp was 0.88. The “T/C ratio, tumor volume” value in the series with RT-HAM-001 tumors came to 41%. The “size of necrotic areas in tumors” value in the series with RT-HAM-001 tumors is “decreased”. Besides, the “hypoxic areas (CAIX) in tumors” value in the series on RT-HAM-001 tumors (not statistically significant) is “appeared to decrease hypoxia in half of the tumors”.
